Measured values from patent US20130011528A1 (priority 2010, published 2013).

Assays:
[1] = target: galactose oxidase (GAO, EC 1.1.3.9) (Gibberella zeae, UniProt P0CS93); assay type: biochemical; settings: GAO biosensor, benzylpenicillin concentration 1000 ppb in milk, glucose and galactose 1.4 mM, 38° C.
[2] = target: glucose oxidase (GOD, EC 1.1.3.4.) (Aspergillus niger, UniProt P13006); test: GOD biosensor: oxygen decrease during glucose oxidation in hydrolysed milk with added antibiotic; assay type: biochemical; settings: benzylpenicillin concentration 1000 ppb in milk, glucose and galactose 1.4 mM, 38° C.
Chain of glucose oxidase (GOD, EC 1.1.3.4.) (P13006 17-605, species assumed): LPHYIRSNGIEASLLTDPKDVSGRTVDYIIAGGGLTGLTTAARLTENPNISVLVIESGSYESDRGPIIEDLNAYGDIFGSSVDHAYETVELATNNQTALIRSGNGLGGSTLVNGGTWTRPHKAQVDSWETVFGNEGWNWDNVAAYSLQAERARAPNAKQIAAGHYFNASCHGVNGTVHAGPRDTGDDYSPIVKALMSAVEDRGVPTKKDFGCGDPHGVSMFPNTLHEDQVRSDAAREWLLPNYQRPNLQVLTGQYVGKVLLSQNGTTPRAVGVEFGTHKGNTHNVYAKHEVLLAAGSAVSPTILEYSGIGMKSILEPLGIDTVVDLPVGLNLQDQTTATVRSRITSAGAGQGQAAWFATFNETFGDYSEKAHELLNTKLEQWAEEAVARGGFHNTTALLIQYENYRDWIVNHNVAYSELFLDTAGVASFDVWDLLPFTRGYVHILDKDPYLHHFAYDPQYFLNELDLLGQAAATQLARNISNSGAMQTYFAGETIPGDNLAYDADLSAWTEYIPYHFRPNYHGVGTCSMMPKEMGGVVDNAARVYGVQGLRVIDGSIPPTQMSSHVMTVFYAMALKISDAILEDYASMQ

Chain of galactose oxidase (GAO, EC 1.1.3.9) (P0CS93 42-680 limits assumed): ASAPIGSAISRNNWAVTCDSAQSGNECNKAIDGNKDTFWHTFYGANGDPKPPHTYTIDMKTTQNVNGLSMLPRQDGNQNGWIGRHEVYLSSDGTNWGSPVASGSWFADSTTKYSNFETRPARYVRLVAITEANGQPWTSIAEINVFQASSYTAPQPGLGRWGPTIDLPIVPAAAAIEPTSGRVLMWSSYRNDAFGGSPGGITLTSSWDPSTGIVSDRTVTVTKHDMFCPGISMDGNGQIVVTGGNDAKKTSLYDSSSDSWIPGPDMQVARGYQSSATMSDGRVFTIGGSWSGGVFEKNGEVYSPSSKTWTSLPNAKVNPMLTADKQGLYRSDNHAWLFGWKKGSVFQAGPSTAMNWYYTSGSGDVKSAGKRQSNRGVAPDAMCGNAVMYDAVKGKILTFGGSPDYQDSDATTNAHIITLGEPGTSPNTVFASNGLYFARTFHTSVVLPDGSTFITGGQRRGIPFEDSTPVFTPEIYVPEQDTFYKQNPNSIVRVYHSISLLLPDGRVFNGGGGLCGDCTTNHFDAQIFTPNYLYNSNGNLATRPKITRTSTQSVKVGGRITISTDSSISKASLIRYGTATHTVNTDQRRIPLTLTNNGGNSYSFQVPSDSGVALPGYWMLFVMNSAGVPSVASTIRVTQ

CC1(C)S[C@@H]2[C@H](NC(=O)Cc3ccccc3)C(=O)N2[C@H]1C(=O)O [benzylpenicillin]
steady state parameter A ([1]; antibiotics-free milk A=0.640): 0.435
kinetic parameter B ([1]; antibiotics-free milk B=53.0): 97.8 s⁻¹
steady state parameter A ([2]; antibiotics-free milk A=0.159): 0.141
kinetic parameter B ([2]; antibiotics-free milk B=222.2): 146.0 s⁻¹
